US7750003B2, “Compounds-943” (AstraZeneca AB, priority 2006, dated 2010)

Test system: phosphorylation of Serine 473 in Akt in MDA-MB-468 human breast adenocarcinoma cells
Test: In vitro phospho-Ser473 Akt assay (Test (c))
Assay type: cell-based
Settings: Homo sapiens, MDA-MB-468, 2 h, MDA-MB-468 cells, 2 hours incubation; read-out: Test (c): IC50 versus Serine 473 in Akt
Method in brief: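 MDA-MB-468 cells (15000/well, adhered overnight) treated with compound for 2 h at 37 °C, 5% CO2. After formaldehyde fixation, permeabilisation and blocking, phospho-Akt Ser473 immunostained with Alexafluor488 secondary and quantified by laser-scanning imaging (Acumen Explorer); IC50 from fluorescence dose–response.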

SMILES	IC50
C[C@H]1COCCN1c1cc(C(C)(C)S(C)(=O)=O)nc(-c2cnc(NC(=O)NC3CC3)nc2)n1 [Example 24ag, 3-cyclopropyl-1-[5-[4-[(3S)-3-methylmorpholin-4-yl]-6-(2-methylsulfonylpropan-2-yl)pyrimidin-2-yl]pyrimidin-2-yl]urea]	320 nM
C[C@H]1COCCN1c1cc(C(C)(C)S(C)(=O)=O)nc(-c2ccc(NC(=O)N3CCC(O)CC3)cc2)n1 [Example 24bc, 4-hydroxy-N-[4-[4-[(3S)-3-methylmorpholin-4-yl]-6-(2-methylsulfonylpropan-2-yl)pyrimidin-2-yl]phenyl]piperidine-1-carboxamide]	690 nM
CCCNC(=O)Nc1ccc(-c2nc(N3CCOC[C@@H]3C)cc(C(C)(C)S(C)(=O)=O)n2)cc1 [Example 24ak, 3-[4-[4-[(3S)-3-methylmorpholin-4-yl]-6-(2-methylsulfonylpropan-2-yl)pyrimidin-2-yl]phenyl]-1-propyl-urea]	210 nM
CCNC(=O)Nc1ncc(-c2nc(N3CCOC[C@@H]3C)cc(C(C)(C)S(C)(=O)=O)n2)cn1 [Example 24af, 1-ethyl-3-[5-[4-[(3S)-3-methylmorpholin-4-yl]-6-(2-methylsulfonylpropan-2-yl)pyrimidin-2-yl]pyrimidin-2-yl]urea]	1400 nM
C[C@H]1COCCN1c1cc(CS(=O)(=O)c2ccncc2)nc(-c2ccc(NC(=O)NC3CCC3)cc2)n1 [Example 48, 3-Cyclobutyl-1-[4-[4-[(3S)-3-methylmorpholin-4-yl]-6-(pyridin-4-ylsulfonylmethyl)pyrimidin-2-yl]phenyl]urea]	38 nM
C[C@H]1COCCN1c1cc(C(C)(C)S(C)(=O)=O)nc(-c2ccc(NC(=O)NC(C)(C)CO)cc2)n1 [Example 24an, 3-(1-hydroxy-2-methyl-propan-2-yl)-1-[4-[4-[(3S)-3-methylmorpholin-4-yl]-6-(2-methylsulfonylpropan-2-yl)pyrimidin-2-yl]phenyl]urea]	1800 nM
C[C@H]1COCCN1c1cc(C(C)(C)S(C)(=O)=O)nc(-c2ccc(NC(=O)NC3CCC3)cc2)n1 [Example 24am, 3-cyclobutyl-1-[4-[4-[(3S)-3-methylmorpholin-4-yl]-6-(2-methylsulfonylpropan-2-yl)pyrimidin-2-yl]phenyl]urea]	210 nM
CNC(=O)Nc1ccc(-c2nc(N3CCOC[C@@H]3C)cc(C(C)(C)S(C)(=O)=O)n2)cn1 [Example 24ah, 3-methyl-1-[5-[4-[(3S)-3-methylmorpholin-4-yl]-6-(2-methylsulfonylpropan-2-yl)pyrimidin-2-yl]pyridin-2-yl]urea]	510 nM
C[C@H]1COCCN1c1cc(C(=O)N2CCOCC2)nc(-c2ccc(NC(=O)NC3CC3)cc2)n1 [Example 63, 3-Cyclopropyl-1-[4-[4-[(3S)-3-methylmorpholin-4-yl]-6-(morpholine-4-carbonyl)pyrimidin-2-yl]phenyl]urea]	410 nM
C[C@H]1COCCN1c1cc(C(C)(C)S(C)(=O)=O)nc(-c2ccc(NC(=O)NCc3ccn(C)n3)cc2)n1 [Example 24az, 1-[4-[4-[(3S)-3-methylmorpholin-4-yl]-6-(2-methylsulfonylpropan-2-yl)pyrimidin-2-yl]phenyl]-3-[(1-methylpyrazol-3-yl)methyl]urea]	5600 nM

The next lines start with the values.

IC50	SMILES
66 nM	C[C@H]1COCCN1c1cc(C(C)(C)S(=O)(=O)C2CC2)nc(-c2ccc(NC(=O)NC3CCC3)cc2)n1 [Example 57h, 3-cyclobutyl-1-[4-[4-(2-cyclopropylsulfonylpropan-2-yl)-6-[(3S)-3-methylmorpholin-4-yl]pyrimidin-2-yl]phenyl]urea]
1900 nM	Cc1nnc(S(=O)(=O)Cc2cc(N3CCOC[C@@H]3C)nc(-c3ccc(NC(=O)NC4CC4)cc3)n2)s1 [Example 43g, 3-cyclopropyl-1-[4-[4-[(3S)-3-methylmorpholin-4-yl]-6-[(5-methyl-1,3,4-thiadiazol-2-yl)sulfonylmethyl]pyrimidin-2-yl]phenyl]urea]
300 nM	CC(C)S(=O)(=O)C(C)(C)c1cc(N2CCOC[C@@H]2C)nc(-c2ccc(NC(=O)NCCCO)cc2)n1 [Example 60s, 3-(3-hydroxypropyl)-1-[4-[4-[(3S)-3-methylmorpholin-4-yl]-6-(2-propan-2-ylsulfonylpropan-2-yl)pyrimidin-2-yl]phenyl]urea]
88 nM	C[C@H]1COCCN1c1cc(CS(=O)(=O)C2CC2)nc(-c2ccc(NC(=O)NC3CCC3)cc2)n1 [Example 57l, 3-cyclobutyl-1-[4-[4-(cyclopropylsulfonylmethyl)-6-[(3S)-3-methylmorpholin-4-yl]pyrimidin-2-yl]phenyl]urea]
1400 nM	CC(C)S(=O)(=O)C(C)(C)c1cc(N2CCOC[C@@H]2C)nc(-c2ccc(NC(=O)Nc3ccc(C(F)(F)F)cc3)cc2)n1 [Example 60t, 1-[4-[4-[(3S)-3-methylmorpholin-4-yl]-6-(2-propan-2-ylsulfonylpropan-2-yl)pyrimidin-2-yl]phenyl]-3-[4-(trifluoromethyl)phenyl]urea]
150 nM	C[C@H]1COCCN1c1cc(C(C)(C)S(=O)(=O)C(C)(C)C)nc(-c2ccc(NC(=O)NC3CC3)cc2)n1 [Example 66c, 3-cyclopropyl-1-[4-[4-[(3S)-3-methylmorpholin-4-yl]-6-(2-tert-butylsulfonylpropan-2-yl)pyrimidin-2-yl]phenyl]urea]
70 nM	CCNC(=O)Nc1ccc(-c2nc(CS(=O)(=O)C3CC3)cc(N3CCOC[C@@H]3C)n2)cc1 [Example 57j, 1-[4-[4-(cyclopropylsulfonylmethyl)-6-[(3S)-3-methylmorpholin-4-yl]pyrimidin-2-yl]phenyl]-3-ethyl-urea]
1300 nM	CC(C)S(=O)(=O)Cc1cc(N2CCOC[C@@H]2C)nc(-c2ccc(NC(=O)Nc3ccccn3)cc2)n1 [Example 60e, 1-[4-[4-[(3S)-3-methylmorpholin-4-yl]-6-(propan-2-ylsulfonylmethyl)pyrimidin-2-yl]phenyl]-3-pyridin-2-yl-urea]
64 nM	CC(C)S(=O)(=O)C(C)(C)c1cc(N2CCOC[C@@H]2C)nc(-c2ccc(NC(=O)NC3CC3)cc2)n1 [Example 60l, 3-cyclopropyl-1-[4-[4-[(3S)-3-methylmorpholin-4-yl]-6-(2-propan-2-ylsulfonylpropan-2-yl)pyrimidin-2-yl]phenyl]urea]
500 nM	C[C@H]1COCCN1c1cc(C(=O)N2CCS(=O)(=O)CC2)nc(-c2ccc(NC(=O)NC3CC3)cc2)n1 [Example 63b, 3-cyclopropyl-1-[4-[4-(1,1-dioxo1,4-thiazinane-4-carbonyl)-6-[(3S)-3-methylmorpholin-4-yl]pyrimidin-2-yl]phenyl]urea]
64 nM	C[C@H]1COCCN1c1cc(C(C)(C)S(=O)(=O)C2CC2)nc(-c2ccc(NC(=O)NC(C)(C)CO)cc2)n1 [Example 57a, 1-[4-[4-(2-cyclopropylsulfonylpropan-2-yl)-6-[(3S)-3-methylmorpholin-4-yl]pyrimidin-2-yl]phenyl]-3-(1-hydroxy-2-methyl-propan-2-yl)urea]
450 nM	CC(C)CNC(=O)Nc1ccc(-c2nc(CS(=O)(=O)c3ccc(F)cc3)cc(N3CCOC[C@@H]3C)n2)cc1 [Example 61g, 1-[4-[4-[(4-fluorophenyl)sulfonylmethyl]-6-[(3S)-3-methylmorpholin-4-yl]pyrimidin-2-yl]phenyl]-3-(2-methylpropyl)urea]
180 nM	C[C@H]1COCCN1c1cc(CS(=O)(=O)c2ccc(F)cc2)nc(-c2ccc(NC(=O)NC(C)(C)CO)cc2)n1 [Example 61d, 1-[4-[4-[(4-fluorophenyl)sulfonylmethyl]-6-[(3S)-3-methylmorpholin-4-yl]pyrimidin-2-yl]phenyl]-3-(1-hydroxy-2-methyl-propan-2-yl)urea]
77 nM	C[C@H]1COCCN1c1cc(C(C)(C)S(=O)(=O)c2ccc(F)cc2)nc(-c2ccc(NC(=O)NC3CC3)cc2)n1 [Example 61q, 3-cyclopropyl-1-[4-[4-[2-(4-fluorophenyl)sulfonylpropan-2-yl]-6-[(3S)-3-methylmorpholin-4-yl]pyrimidin-2-yl]phenyl]urea]
870 nM	CC(C)NC(=O)Nc1ccc(-c2nc(CS(=O)(=O)C(C)C)cc(N3CCOC[C@@H]3C)n2)cc1 [Example 60f, 1-[4-[4-[(3S)-3-methylmorpholin-4-yl]-6-(propan-2-ylsulfonylmethyl)pyrimidin-2-yl]phenyl]-3-propan-2-yl-urea]
380 nM	C[C@H]1COCCN1c1cc(CS(=O)(=O)C2CC2)nc(-c2ccc(NC(=O)NC(C)(C)CO)cc2)n1 [Example 57e, 1-[4-[4-(cyclopropylsulfonylmethyl)-6-[(3S)-3-methylmorpholin-4-yl]pyrimidin-2-yl]phenyl]-3-(1-hydroxy-2-methyl-propan-2-yl)urea]
620 nM	C[C@H]1COCCN1c1cc(CN(C)C)nc(-c2ccc(NC(=O)NC3CC3)cc2)n1 [Example 49d, 3-cyclopropyl-1-[4-[4-(dimethylaminomethyl)-6-[(3S)-3-methylmorpholin-4-yl]pyrimidin-2-yl]phenyl]urea]
92 nM	C[C@H]1COCCN1c1cc(C(=O)N2CCCNCC2)nc(-c2ccc(NC(=O)NC3CC3)cc2)n1 [Example 63a, 3-cyclopropyl-1-[4-[4-(1,4-diazepane-1-carbonyl)-6-[(3S)-3-methylmorpholin-4-yl]pyrimidin-2-yl]phenyl]urea]
45 nM	C[C@H]1COCCN1c1cc(C(C)(C)S(=O)(=O)c2ccc(F)cc2)nc(-c2ccc(NC(=O)NCCN(C)C)cc2)n1 [Example 61o, 3-(2-dimethylaminoethyl)-1-[4-[4-[2-(4-fluorophenyl)sulfonylpropan-2-yl]-6-[(3S)-3-methylmorpholin-4-yl]pyrimidin-2-yl]phenyl]urea]
190 nM	CCNC(=O)Nc1ccc(-c2nc(N3CCOC[C@@H]3C)cc(C(C)(C)S(=O)(=O)C(C)C)n2)cc1 [Example 60j, 1-ethyl-3-[4-[4-[(3S)-3-methylmorpholin-4-yl]-6-(2-propan-2-ylsulfonylpropan-2-yl)pyrimidin-2-yl]phenyl]urea]
